Data taken from US10723733B2, “Hepatitis B antiviral agents” (Enanta Pharmaceuticals, Inc., priority 2017, dated 2020).

system: HBV; experiment: HepAD38 antiviral assay: reduction of viral product accumulation (virion DNA by qPCR, HBsAg/HBeAg by ELISA); type: cell-based; conditions: Hepatitis B virus, 120 h; HepAD38 cells; 50% reduction of viral product accumulation vs no drug controls; five days after compound addition; class symbols
Method: Methods: HepAD38 cells are maintained as previously reported (Ladner et al, Antimicrob. Agents Chemother. 1997, […], 1715). Briefly, cells are passaged upon attaining confluency in DMEM/F12 media in the presence of 10% FBS, Penn/Strep, 250 μg/mL G418, and 1 μg/ml tetracycline. Novel compounds are screened by first washing cells three times with PBS to remove tetracycline, and plating in 96 well plates at 35,000 cells/well. Compounds dissolved in DMSO are then diluted 1:200 into wells containing cells. Five days after compound addition, material is harvested for analysis. For an extended 8 day analysis, cells are plated and treated as described above, but media and compound are refreshed on d2 and d5 post initial treatment.
On harvest day, virion DNA is obtained by lysing with Sidestep Lysis and Stabilization Buffer and then quantified via quantitative real time PCR. Commercially available ELISA kits are used to quantitate the viral proteins HBsAg (Alpco) or HbeAg (US Biological) by following the manufacturer's recommended protocol after diluting samples to match the linear range of their respective assays. Irrespective of readout, compound concentrations that reduce viral product accumulation in the cell lysates or supernatants by 50% relative to no drug controls (EC50) are reported; EC50 ranges are as follows: A<0.1 μM; B 0.1-1 μM; C>1 μM.

Row | Structure (SMILES) | EC50
1 | O=C[C@@]1(CC2=C(c3ccn(C(F)F)n3)[C@H](c3ccc(F)cc3Cl)N=C(c3nccs3)N2)COC(=O)N1 [Example 91] | < 100 nM
2 | OC[C@]1(F)CC2=C(c3cnn(C(F)F)c3)[C@H](c3ccc(F)cc3Cl)N=C(c3nccs3)N2C1 [Example 148] | 100 to 1000 nM
3 | COCC(F)(COC)CC1=C(c2cnn(C(F)F)c2)[C@H](c2ccc(F)cc2Cl)N=C(c2nccs2)N1 [Example 138] | 100 to 1000 nM
4 | CN(C)C(=O)NCC1(F)CC2=C(c3cnn(C(F)F)c3)[C@H](c3ccc(F)cc3Cl)N=C(c3nccs3)N2C1 (stereo partly drawn) [Example 44] | 100 to 1000 nM
5 | CC(=O)OC[C@@]1(N=[N+]=[N-])CC2=C(c3cnn(C(F)F)c3)[C@H](c3ccc(F)cc3Cl)N=C(c3nccs3)N2C1 [Example 59] | < 100 nM
6 | CC(=O)OC[C@]1(CC2=C(c3ccn(C(F)F)n3)[C@H](c3ccc(F)cc3Cl)N=C(c3nccs3)N2)COC(=O)N1 [Example 97] | 100 to 1000 nM
7 | COC(=O)OC[C@]1(CC2=C(c3ccn(C(F)F)n3)[C@H](c3ccc(F)cc3Cl)N=C(c3nccs3)N2)COC(=O)N1 [Example 96] | 100 to 1000 nM
8 | CC(C)S(=O)(=O)N[C@H]1CC2=C(c3cnn(C(F)F)c3)[C@H](c3ccc(F)cc3Cl)N=C(c3nccs3)N2C1 [Example 24] | < 100 nM
9 | OC1CCCC1CC1=C(c2cnn(C(F)F)c2)[C@H](c2ccc(F)cc2Cl)N=C(c2nccs2)N1 (stereo partly drawn) [Example 45] | 100 to 1000 nM
10 | CS(=O)(=O)OC[C@]1(N=[N+]=[N-])CC2=C(c3cnn(C(F)F)c3)[C@H](c3ccc(F)cc3Cl)N=C(c3nccs3)N2C1 [Example 49] | 100 to 1000 nM
11 | CS(=O)(=O)OC[C@@]1(N=[N+]=[N-])CC2=C(c3cnn(C(F)F)c3)[C@H](c3ccc(F)cc3Cl)N=C(c3nccs3)N2C1 [Example 51] | 100 to 1000 nM
12 | OC[C@@]1(O)CC2=C(c3ccn(C(F)F)n3)[C@H](c3ccc(F)cc3Cl)N=C(c3nccs3)N2C1 [Example 122] | 100 to 1000 nM
13 | O=S(=O)(N[C@]1(CO)CC2=C(c3ccn(C(F)F)n3)[C@H](c3ccc(F)cc3Cl)N=C(c3nccs3)N2C1)C1CC1 [Example 70] | 100 to 1000 nM

same assay, conditions: Hepatitis B virus, 120 h; HepAD38 cells; 50% reduction of viral product accumulation vs no drug controls; five days after compound addition; given as numeric bound

Row | Structure (SMILES) | EC50
14 | CCC[C@H]1OC[C@](F)(CC2=C(c3cnn(C(F)F)c3)[C@H](c3ccc(F)cc3Cl)N=C(c3nccs3)N2)CO1 [Example 141] | > 400 nM
15 | O=C(N[C@H]1CC2=C(c3cnn(C(F)F)c3)[C@H](c3ccc(F)cc3Cl)N=C(c3nccs3)N2C1)NS(=O)(=O)C1CC1 [Example 16] | > 100 nM
16 | COC(=O)CCNC(=O)OC[C@@]1(NC(=O)OC)CC2=C(c3ccn(C(F)F)n3)[C@H](c3ccc(F)cc3Cl)N=C(c3nccs3)N2C1 [Example 78] | > 400 nM
17 | COC(=O)N[C@]1(COC(C)=O)CC2=C(c3ccn(C(F)F)n3)[C@H](c3ccc(F)cc3Cl)N=C(c3nccs3)N2C1 [Example 83] | > 400 nM
18 | CCOC(=O)NC[C@@H]1CN(CC2=C(c3ccn(C(F)F)n3)[C@H](c3ccc(F)cc3Cl)N=C(c3nccs3)N2)C(=O)O1 [Example 129] | > 400 nM
19 | C[C@@]1(CN=[N+]=[N-])CC2=C(c3cnn(C(F)F)c3)[C@H](c3ccc(F)cc3Cl)N=C(c3nccs3)N2C1 [Example 37] | > 400 nM
20 | O=C1N[C@](CO)(CC2=C(c3ccn(C(F)F)n3)[C@H](c3ccc(F)cc3Cl)N=C(c3nccs3)N2)CO1 [Example 90] | > 400 nM
21 | CCC[C@H]1OC[C@@](F)(CC2=C(c3cnn(C(F)F)c3)[C@H](c3ccc(F)cc3Cl)N=C(c3nccs3)N2)CO1 [Example 142] | > 400 nM
22 | COC(=O)[C@@]1(NC(=O)OC(C)(C)C)CC2=C(c3ccn(C(F)F)n3)[C@H](c3ccc(F)cc3Cl)N=C(c3nccs3)N2C1 [Example 64] | > 400 nM
23 | COC(=O)C(O)(CO)CC1=C(c2ccn(C(F)F)n2)[C@H](c2ccc(F)cc2Cl)N=C(c2nccs2)N1 (stereo partly drawn) [Example 112] | > 400 nM
24 | COC(=O)[C@@]1(NS(=O)(=O)C2CC2)CC2=C(c3ccn(C(F)F)n3)[C@H](c3ccc(F)cc3Cl)N=C(c3nccs3)N2C1 [Example 68] | > 400 nM
25 | CC(=O)NS(=O)(=O)N[C@H]1CC2=C(c3cnn(C(F)F)c3)[C@H](c3ccc(F)cc3Cl)N=C(c3nccs3)N2C1 [Example 20] | > 400 nM
26 | CS(=O)(=O)OCC1CC2=C(c3cnn(C(F)F)c3)[C@H](c3ccc(F)cc3Cl)N=C(c3nccs3)N2C1 (stereo partly drawn) [Example 28] | > 100 nM
27 | C=CCOC[C@]1(CC2=C(c3ccn(C(F)F)n3)[C@H](c3ccc(F)cc3Cl)N=C(c3nccs3)N2)COC(=O)N1 [Example 100] | > 400 nM
28 | O=S(=O)(CC1=C(c2cnn(C(F)F)c2)[C@H](c2ccc(F)cc2Cl)N=C(c2nccs2)N1)C1CCCC1 [Example 145] | > 400 nM
29 | OCC1CC2=C(c3cnn(C(F)F)c3)[C@H](c3ccc(F)cc3Cl)N=C(c3nccs3)N2C1 (stereo partly drawn) [Example 27] | > 100 nM

Row | Structure (SMILES) | EC50
30 | CCOC(=O)NC[C@H]1CCC(=O)N1CC1=C(c2ccn(C(F)F)n2)[C@H](c2ccc(F)cc2Cl)N=C(c2nccs2)N1 [Example 134] | > 400 nM
31 | CS(=O)(=O)NC[C@@]1(O)CC2=C(c3ccn(C(F)F)n3)[C@H](c3ccc(F)cc3Cl)N=C(c3nccs3)N2C1 [Example 115] | > 400 nM
32 | C[C@H]1OC[C@](F)(CC2=C(c3cnn(C(F)F)c3)[C@H](c3ccc(F)cc3Cl)N=C(c3nccs3)N2)CO1 [Example 139] | > 400 nM
33 | O=C(O)CC[C@]1(CC2=C(c3ccn(C(F)F)n3)[C@H](c3ccc(F)cc3Cl)N=C(c3nccs3)N2)COC(=O)N1 [Example 107] | > 400 nM
34 | CC(=O)OC[C@]1(N=[N+]=[N-])CC2=C(c3cnn(C(F)F)c3)[C@H](c3ccc(F)cc3Cl)N=C(c3nccs3)N2C1 [Example 58] | > 400 nM
35 | CS(=O)(=O)OC[C@]1(F)CC2=C(c3cnn(C(F)F)c3)[C@H](c3ccc(F)cc3Cl)N=C(c3nccs3)N2C1 [Example 34] | > 400 nM
36 | COC(=O)[C@](CO)(CC1=C(c2ccn(C(F)F)n2)[C@H](c2ccc(F)cc2Cl)N=C(c2nccs2)N1)NC(=O)OC(C)(C)C [Example 63] | > 400 nM
37 | CC(=O)[C@]1(CC2=C(c3ccn(C(F)F)n3)[C@H](c3ccc(F)cc3Cl)N=C(c3nccs3)N2)COC(=O)N1 [Example 108] | > 400 nM
38 | COC(=O)OC[C@]1(N=[N+]=[N-])CC2=C(c3cnn(C(F)F)c3)[C@H](c3ccc(F)cc3Cl)N=C(c3nccs3)N2C1 [Example 54] | > 400 nM
39 | Fc1ccc([C@@H]2N=C(c3nccs3)N3C[C@@H](OCc4ccccc4)CC3=C2c2cnn(C(F)F)c2)c(Cl)c1 [Example 25] | > 200 nM
40 | COC(=O)NC[C@@]1(O)CC2=C(c3ccn(C(F)F)n3)[C@H](c3ccc(F)cc3Cl)N=C(c3nccs3)N2C1 [Example 117] | > 400 nM
41 | CC(O)[C@]1(CC2=C(c3ccn(C(F)F)n3)[C@H](c3ccc(F)cc3Cl)N=C(c3nccs3)N2)COC(=O)N1 (stereo partly drawn) [Example 110] | > 400 nM
42 | CC(C)(C)OC(=O)NC[C@@H]1CN(CC2=C(c3ccn(C(F)F)n3)[C@H](c3ccc(F)cc3Cl)N=C(c3nccs3)N2)C(=O)O1 [Example 127] | > 400 nM
43 | COC(=O)NC[C@H]1CCC(=O)N1CC1=C(c2ccn(C(F)F)n2)[C@H](c2ccc(F)cc2Cl)N=C(c2nccs2)N1 [Example 132] | > 400 nM
44 | CC(C)(O)[C@]1(CC2=C(c3ccn(C(F)F)n3)[C@H](c3ccc(F)cc3Cl)N=C(c3nccs3)N2)COC(=O)N1 [Example 109] | > 400 nM
45 | O=S(=O)(NCC1CC2=C(c3cnn(C(F)F)c3)[C@H](c3ccc(F)cc3Cl)N=C(c3nccs3)N2C1)C1CC1 (stereo partly drawn) [Example 33] | > 100 nM
